Where two headings read alike, the source gives them in different places.
Legend:
[1] = system: EOL1 human acute myeloid (eosinophilic) leukemia xenograft model; experiment: EOL1 xenograft, CD74-ADCs Fc silent with different linker payloads (Example 15); type: in vivo, mice; details: 2.5 mg/kg i.v. once + Venetoclax 50 mg/kg p.o. qd
Description: To optimize the linker payload, efficacy of 6 CD74-ADCs with different linker payloads (L5-P1, L30-P1, L31-P1, L32-P1, L33-P1 and L34-P1) was evaluated in the EOL1 model in vivo.
(§1) EOL1 luciferase transfected cells were cultured at 37° C. in an atmosphere of 5% CO2 in air in RPM11640 (BioConcept Ltd. Amimed) supplemented with 10% FCS (BioConcept Ltd. Amimed, #2-01 F30-1), 2 mM L-glutamine (BioConcept Ltd. Amimed, #5-10K00-H) and 1 mM sodium pyruvate (BioConcept Ltd. Amimed, #5-60F00-H), 10 mM HEPES (Gibco #11560496). To establish EOL1 xenografts cells were harvested and re-suspended in HBSS (Gibco, #14175) before injecting 100 μL containing 5×10^6 cells subcutaneously in the flanks of female SCID beige mice (Charles River, Germany). Tumor growth was monitored regularly post cell inoculation and animals were randomized into treatment groups (n=6) with a mean tumor volume of about 130 mm^3. The ADCs were administered intravenously (iv) once at the start of treatment at 2.5 mg/kg or at 3.3 mg/kg in combination with venetoclax which was administered orally (po) daily (qd) at 50 mg/kg. Doses were adjusted to individual mouse body weights. The iv dose volume was 10 ml/kg and each ADC was dissolved in 0.9% (w/v) NaCl in water. Tumor volume data on day 10 post treatment were analyzed statistically using one way ANOVA post hoc Tukey's multiple comparisons test (Indigo Software). Results are presented as mean±SEM. As a measure of efficacy the % T/C value is calculated on day 10 according to:
(§2) (Δtumor volume^treated/Δtumor volume^control)*100
(§3) Tumor regression was calculated according to:
(§4) −(Δtumor volume^treated/tumor volume^treated at start)*100
(§5) Where Δtumor volumes represent the mean tumor volume on the evaluation day minus the mean tumor volume at the start of the experiment.

EOL-1 = type: cell-based
Description: (§6) The CD74 MCL-1 antibody drug conjugates were tested against three endogenous cancer cell lines. MONO-MAC-1 (DSMZ No. ACC-252 cultured in RPMI-1640+10% FBS+1× non-essential amino acids+1 mM sodium pyruvate), NOMO-1 (DSMZ No. ACC-542 cultured in RPMI-1640+10% FBS) and EOL-1 (DSMZ No. ACC-386 cultured in RPMI-1640+10% FBS)
(§7) The ability of the CD74 MCL-1 antibody drug conjugates to inhibit cell proliferation in combination with BCL-2 inhibitor and survival was assessed using the Promega CellTiter-Glo® proliferation assay. Cell lines were cultured in media that is optimal for their growth at 5% CO2, 37° C. in a tissue culture incubator. Prior to seeding for the proliferation assay, the cells were split at least 2 days before the assay to ensure optimal growth density. On the day of seeding, suspension cells were harvested. Cell viability and cell density were determined using a cell counter (Vi-Cell XR Cell Viability Analyzer, Beckman Coulter). […] Cells were seeded at a density of 1,000 cells per well in 45 μL of standard growth media. Plates were incubated at 5% CO2, 37° C. overnight in a tissue culture incubator. The next day, free MCL-1 payload (P1), targeting MCL-1 ADCs and non-targeting isotype ADCs were prepared at 10× in standard growth media. The prepared drug treatments were then added to the cells resulting in final concentrations of 0.0005-300 nM and a final volume of 50 μL per well. Each drug concentration was tested in quadruplets. Three conditions were evaluated for each compound. The compounds were evaluated as single agents and in combination with Venetoclax and in combination with Compound A1. The Venetoclax and Compound A1 were dosed at either 5 nM or 50 nM final concentration. Plates were incubated at 5% CO2, 37° C. for 5 days in a tissue culture incubator, after which cell viability was assessed through the addition of 25 μL of CellTiter Glo® (Promega, cat#G7573), a reagent which lyses cells and measures total adenosine triphosphate (ATP) content. Plates were incubated at room temperature for 10 minutes to stabilize luminescent signals prior to reading using a luminescence reader (EnVision Multilabel Plate Reader, PerkinElmer). To evaluate the effect of the drug treatments, luminescent counts from wells containing untreated cells (100% viability) were used to normalize treated samples. A variable slope model was applied to fit a nonlinear regression curve to the data in GraphPad PRISM version 7.02 software. IC50 and Amax values were extrapolated from the resultant curves.

NOMO-1 = type: cell-based
Description: as §6, §7

MONO-MAC-1 = type: cell-based
Description: as §6, §7

Monomac1 cells = experiment: Viability of Monomac1 AML cell line, CellTiterGlo 72 h; type: cell-based; details: Mono-Mac-1, 72 h; read-out: IC50 M (CTG 72 h) Monomac1
Description: Monomac1 cells were cultivated in RPMI supplemented with 10% heat inactivated fetal bovine serum, penicillin (100 IU/ml), streptomycin ([…]) and L-glutamine (2 mM). Cell lines were cultured at 37° C. in a humidified atmosphere containing 5% CO2. Cells were seeded in 96 microwell plates and exposed to the payloads or ADCs for 72 h (serially diluted; 9 concentrations each, triplicates). Effects of payloads or ADCs on cell viability were assessed after 3 days of incubation at 37° C./5% CO2 by quantification of cellular ATP levels using CellTiterGlo at 75 μL reagent/well. All the conditions were tested in triplicates. Luminescence was quantified on a multipurpose plate reader. IC50s were calculated using standard four-parametric curve fitting. […] Each experiment was performed at least twice, with results being reproducible.

[2] = system: EOL1 human acute myeloid (eosinophilic) leukemia xenograft model; experiment: EOL1 xenograft, CD74-L5-P1 Fc silent with venetoclax (Example 14); type: in vivo, mice
Description: as §1, with “RPMI1640” for “RPM11640”, “CD74-L5-P1 Fc silent, isotype IgG1 ADC Fc silent and CD74 Fc silent antibody” for “The ADCs”, “the doses indicated in FIG. 12 either alone” for “2.5 mg/kg”, “or” for “or at 3.3 mg/kg”, “Kruskal-Wallis rank sum” for “one way ANOVA post hoc Tukey's multiple comparisons”, “When applicable, results” for “Results”
as §2, §3, §4, §5

[3] = system: Nomo1 acute myeloid leukemia model; experiment: Nomo1 xenograft tumor growth inhibition; type: in vivo; details: female SCID mice, 50 MK 4ON/3OFF/4ON, PO, alone, day 9
Description: The in vivo therapeutic effect of a CD74-targeting ADC formulated in Phosphate-Buffered Saline (PBS) is determined in Nomo1 acute myeloid leukemia model after intravenous (IV) administration. The follow compounds were tested: anti-CD74_CysmAb Fc silent_L5-P1, anti-CD74_CysmAb Fc silent and IgG1-Linker-Payload Fc silent.
Nomo1 cells, obtained from DSMZ, were cultured in RPMI supplemented with 10% FBS. 0.1 ml containing 5×10^6 cells were subcutaneously inoculated into the right flank of female SCID mice, provided by Charles River. When tumors reached the appropriate volume, mice were randomized, 6 animals per group, using Easy stat software. IgG1-Linker-Payload Fc silent, anti-CD74_CysmAb Fc silent and anti-CD74_CysmAb Fc silent_L5-P1 (30 mg/kg) were injected once IV in PBS. Venetoclax (synthetized at the Servier Research Institute—IdRS) was formulated in PEG/EtOH/Phosal (Polyethylene glycol/ethanol/phosal, 30/10/60) and administered per os (PO) daily on weekdays (50 mpk, 4ON/3OFF/4ON). Mice body weight was monitored three times a week and tumor size measured using electronic calipers. […] The last day with at least half of animals of all groups still present in the study (d9), tumor growth inhibition was calculated using the formula: […]
With DTV (Delta Tumor Volume) at Dx, calculated being TV at Dx-TV at Randomization. […]

[4] = system: Karpas422 diffuse large B-cell lymphoma model; experiment: Karpas422 xenograft tumor growth inhibition; type: in vivo, mice; details: 50 MK 4ON/3OFF/4ON, PO, alone
Description: The in vivo therapeutic effect of a CD74-targeting ADC formulated in Phosphate-Buffered Saline (PBS) was determined in Karpas422 diffuse large B-cell lymphoma model after intravenous (IV) administration.
Karpas422 cells, obtained from ATCC, were cultured in RPMI supplemented with 20% FBS. Cells were resuspended in 100% Matrigel (BD Biosciences) and 0.1 ml containing 11×10^6 cells were subcutaneously inoculated into the right flank of female NSG mice, provided by Charles River. When tumors reached the appropriate volume, mice were randomized, 6 animals per group, using Easy stat software. IgG1-Linker-Payload Fc silent, anti-CD74_CysmAb Fc silent and anti-CD74_CysmAb Fc silent_L5-P1 (30 mg/kg) were injected once IV in PBS. Venetoclax (synthetized at the Servier Research Institute—IdRS) was formulated in PEG/EtOH/Phosal (Polyethylene glycol/ethanol/phosal, 30/10/60) and administered per os (PO) daily on weekdays (50 mpk, 4ON/3OFF/4ON). Mice body weight was monitored three times a week and tumor size measured using electronic calipers. Tumor volume was estimated by measuring the minimum and maximum tumor diameters using the formula: (minimum diameter)^2(maximum diameter)/2. The last day with at least half of control animals still present in the study (d23), tumor growth inhibition was calculated using the formula:
With DTV (Delta Tumor Volume) at Dx, calculated being TV at Dx-TV at Randomization. Response was evaluated as it follows: CR (Complete Response) if tumor size was <25 mm^3 for at least three measurements, PR (Partial Response) if tumor size was comprised between 25 mm^3 and 168.3 mm^3 (half of the starting size) for at least three measurements. Mice were sacrificed at the first measurement for which tumor volume exceeded 2000 mm^3 or at the first signs of animal health deterioration. […] SCID mice were maintained according to institutional guidelines.

[5] = system: Monomac1 acute myeloid leukemia model; experiment: Monomac1 xenograft tumor growth inhibition; type: in vivo, mice; details: 50MK 2ON/2OFF/5ON/2OFF/4ON, PO, alone
Description: The in vivo therapeutic effect of a CD74-targeting ADC formulated in Phosphate-Buffered Saline (PBS) was determined in Monomac1 acute myeloid leukemia model after intravenous (IV) administration. The following compounds were tested: CD74-targeting ADC is anti-CD74_CysmAb Fc silent_L5-P1, IgG1-Linker-Payload Fc silent, and anti-CD74_CysmAb Fc silent.
Monomac1 cells, obtained from DSMZ, were cultured in RPMI supplemented with 10% FBS. 0.1 ml containing 5×10^6 cells were subcutaneously inoculated into the right flank of female SCID mice, provided by Charles River. When tumors reached the appropriate volume, mice were randomized, 6 animals per group, using Easy stat software. IgG1-Linker-Payload Fc silent, anti-CD74_CysmAb Fc silent and anti-CD74_CysmAb Fc silent_L5-P1 (30 mg/kg) were injected once IV in PBS. Venetoclax (synthetized at the Servier Research Institute—IdRS) was formulated in PEG/EtOH/Phosal (Polyethylene glycol/ethanol/phosal, 30/10/60) and administered per os (PO) daily on weekdays (50 mpk, 2ON/2OFF/5ON/2OFF/4ON). Mice body weight was monitored three times a week and tumor size measured using electronic calipers. Tumor volume was estimated by measuring the minimum and maximum tumor diameters using the formula: (minimum diameter)^2(maximum diameter)/2. The last day with at least half of control animals still present in the study (d16), tumor growth inhibition was calculated using the formula:
With DTV (Delta Tumor Volume) at Dx, calculated being TV at Dx-TV at Randomization. […] Mice were sacrificed at the first measurement for which tumor volume exceeded 2000 mm^3 or at the first signs of animal health deterioration. […] SCID mice were maintained according to institutional guidelines.

COCCOCCOCCOCCOCCOCCOCCOCCOCCOCCOCCOCCOCCOCCOCCOCCOCCOCCOCCOCCOCCOCCOCCOCCn1cc(COCc2cc(NC(=O)[C@H](CCCNC(N)=O)NC(=O)[C@@H](NC(=O)CCOCCN3C(=O)CC(C)C3=O)C(C)C)ccc2C[N+]2(C)CCN(CCOc3ccc(-c4c(-c5ccc(F)cc5)sc5ncnc(O[C@H](Cc6ccccc6OCc6ccnc(-c7ccccc7OC)n6)C(=O)O)c45)c(C)c3Cl)CC2)nn1 (stereo partly drawn) [CD74-L5-P1]
T/C (%) ([1]; day 10): 70% | ΔTumor volume (mm^3) ([1]; female SCID beige mice, day 10, mean): 702 mm^3 | IC50 (EOL-1; + 5 nM Compound A1, 5 days): 0.136 nM | IC50 (EOL-1; + 5 nM Venetoclax, 5 days): 0.164 nM | Amax (Span) EOL-1 (EOL-1; single agent, 5 days): 91.25 | IC50 (EOL-1; single agent, 5 days): 1.42 nM | IC50 (NOMO-1; + 5 nM Compound A1, 5 days): 0.457 nM | IC50 (NOMO-1; + 5 nM Venetoclax, 5 days): 1.03 nM | IC50 (NOMO-1; + 50 nM Compound A1, 5 days): 0.138 nM | IC50 (NOMO-1; + 50 nM Venetoclax, 5 days): 0.278 nM | Amax (Span) NOMO-1 (NOMO-1; single agent, 5 days): 74.45 | IC50 (NOMO-1; single agent, 5 days): 3.7 nM | IC50 (MONO-MAC-1; + 5 nM Compound A1, 5 days): 0.636 nM | IC50 (MONO-MAC-1; + 5 nM Venetoclax, 5 days): 1.31 nM | IC50 (MONO-MAC-1; + 50 nM Compound A1, 5 days): 0.156 nM | IC50 (MONO-MAC-1; + 50 nM Venetoclax, 5 days): 0.409 nM | Amax (Span) MONO-MAC-1 (MONO-MAC-1; single agent, 5 days): 84.9 | IC50 (MONO-MAC-1; single agent, 5 days): 7.95 nM

Cc1c(Cl)c2c(Cl)c(C)c1-c1c(-c3ccc(F)cc3)sc3ncnc(c13)O[C@@H](C(=O)O)Cc1cc(ccc1OCc1ccnc([C@H]3CC[C@](F)(COC[C@@H]4COCCO4)CC3)n1)OC[C@@H](CN1CCN(C)CC1)O2 [P16, (11R,20R)-23,26-dichloro-14-[[2-[4-[[(2S)-1,4-dioxan-2-yl]methoxymethyl]-4-fluoro-cyclohexyl]pyrimidin-4-yl]methoxy]-3-(4-fluorophenyl)-24,25-dimethyl-20-[(4-methylpiperazin-1-yl)methyl]-10,18,21-trioxa-4-thia-6,8-diazapentacyclo[20.2.2.12,5.113,17.09,28]octacosa-1(24),2,5(28),6,8,13,15,17(27),22,25-decaene-11-carboxylic Acid]
IC50 (Monomac1 cells): 0.281 nM

Cc1c(Cl)c2c(Cl)c(C)c1-c1c(-c3ccc(F)cc3)sc3ncnc(c13)O[C@@H](C(=O)O)Cc1cc(ccc1OCc1ccnc([C@H]3CC[C@H](OC[C@@H]4COCCO4)CC3)n1)OC[C@@H](CN1CCN(C)CC1)O2 [P17, (11R,20R)-23,26-dichloro-14-[[2-[4-[[(2S)-1,4-dioxan-2-yl]methoxy]cyclohexyl]pyrimidin-4-yl]methoxy]-3-(4-fluorophenyl)-24,25-dimethyl-20-[(4-methylpiperazin-1-yl)methyl]-10,18,21-trioxa-4-thia-6,8-diazapentacyclo[20.2.2.12,5.113,17.09,28]octacosa-1(24),2,5(28),6,8,13,15,17(27),22,25-decaene-11-carboxylic Acid]
IC50 (Monomac1 cells): 0.62 nM

CC1(C)CCC(CN2CCN(c3ccc(C(=O)NS(=O)(=O)c4ccc(NCC5CCOCC5)c([N+](=O)[O-])c4)c(Oc4cnc5[nH]ccc5c4)c3)CC2)=C(c2ccc(Cl)cc2)C1 [Venetoclax]
T/C (%) ([2]; 50 mg/kg p.o. qd + vehicle for ADC, day 10): 90% | ΔTumor volume (mm^3) ([2]; 50 mg/kg p.o. qd + vehicle for ADC, day 10, mean): 977 mm^3 | antitumor effect (in words) ([2]; 50 mg/kg po qd alone): Limited efficacy | % TGI (d9) [3]: 26.2% | % CR [4]: 0% | % PR [4]: 0% | % TGI (d23) ([4]; female NSG mice, day 23): 31.1% | % CR [5]: 0% | % PR [5]: 0% | % TGI (d16) ([5]; female SCID mice, day 16): 4.5%
